# Assay results published in US6440451B1, “Use of crataegus formulations for prophylaxis and treatment of neoplastic diseases” (Nativia Health Products GmbH, priority 1998, dated 2002).
# Assays:
# [1] = test system: human fibroblasts, keratinocytes and endothelial cells; conditions: Fotsis et al., Cancer Research 57 (1997); cited from earlier work
# [2] = test system: human neuroblastoma and breast carcinoma cells; conditions: Fotsis et al., Cancer Research 57 (1997); cited from earlier work
# SKMEL-2 = assay: SRB assay, SK-MEL-2 malignant melanoma cells; type: cell-based, human; conditions: for % control / dE mean: SKMEL-2, 72 hours
# From the text: (§1) In the context of the present invention, five human tumour cell lines (four carcinoma cell lines, one sarcoma cell line) and one animal carcinoma cell line (cf. tab. 2) were investigated as examples. All the cell lines were kept in permanent cell culture in cell culture bottles with 75 cm^2 base area. They were subjected to passage once a week, and the medium was changed twice a week. At the start of the experiment (day 0), the cells were sown in cell culture plates with 96 depressions (96 well plates) in 100 μl medium per well (=0.32 cm^2) in each case, with the density shown in table 2. On days 1 and 4, the medium of all the cells was changed, and after the change of medium on day 4, incubation with the active substances (Crataegus formulations, Gentiana, superoxide dismutase, 5-fluorouracil and methotrexate; see below) or the solvents as controls started immediately. The effects of the active substances were measured on day 7 (that is to say after incubation for 72 hours) with two different methods, the so-called MTT assay and the SRB assay (see tab. 2).
# (§2) SRB assay: The SRB assay (P. Skehan et al., J. Natl. Cancer Inst. 82 (1990) 1107-1112) is based on binding of the dyestuff sulphorhodamine B (SRB) to basic proteins. The principle specifies fixing, with the aid of trichloroacetic acid, the tumour cells adhering to the culture vessel base and thereafter dyeing their protein. This dyeing is then also determined photometrically. Non-living cells are distinguished in that they first detach themselves from the cell culture base and then dissolve in the culture medium. This method therefore also measures only the living cells in a cell culture. The cells growing in 100 μl medium are first fixed with 25 μl 50% cold trichloroacetic acid at 4° C. After incubation for one hour at 4° C., all the non-fixed constituents are removed and those which remain are rinsed five times with water. After drying in air, 200 μl 0.4% sulphorhodamine B solution in 1% acetic acid or, in the photometric controls, only acetic acid,. are added. After incubation for 30 minutes at room temperature, the dyestuff solution is poured out and the culture is rinsed four times with 1% acetic acid. After removal of the rinsing solution and drying, the dyestuff adhering to the basic proteins is dissolved in 100 μl 10 mM tris-base (tris(hydroxymethyl)aminomethane) in the course of 5 minutes. The extinction was measured at 570 nm or, if the OD (optical density) lay outside the linear range, at 492 nm (for CMT-93 cells). For the evalution, ΔE was determined by subtraction of the extinction in the controls with acetic acid from the measurement values with SRB.
# The data shown in table 3 are the means of three individual measurements. ΔE measured under the action of the various test substances has additionally been shown in percent of ΔE of the particular solvent controls. The control cells, which received no test substances (Crataegus formulations) but only medium or solvent, reached 100% of their density (number) as defined at the measurement time (day 7). At the time of addition of the test substance (day 4), the cells had already reached approx. 50% of the density, and therefore also 50% of the ΔE to be measured.
# SAOS-2 = assay: MTT assay, SAOS-2 osteosarcoma cells; type: cell-based, human; conditions: 72 hours
# From the text: as §1
# (§3) MTT assay: The MTT assay (T. Mossman, J. Immunoll. Methods 65 (1983) 55-63) is based on measurement of the metabolic activity of living cells. The substance 3-(4,5-dimethylthiazol-2-yl)-2,5-diphenyltetrazolium bromide (MTT), which the cells reduce intracellularly to the water-insoluble dyestuff formazan, is made available to the cells. This reduction takes place only in metabolically active cells, so that this assay detects exclusively living cells. At the measurement time, in each case 100 μl MTT solution (4 mg/ml PBS, phosphate buffered saline) are added to the cells in 100 μl medium. Incubation for two hours at 37° C. then takes place. Thereafter, the medium is sucked off, so that the dyed living cells adhering to the base of the culture flask remain. These and the dyestuff are dissolved with 100 μl DMSO (dimethylsulphoxide) in the course of 5 minutes, with vigorous shaking. The extinction is then determined photometrically at 570 nm. Its linearity in the range used here, and also its correlation to the number of living cells (counted under the microscope) were detected in preliminary experiments. […] For the evaluation, ΔE was determined by subtraction of the extinction in the controls with PBS from the measurement values with MTT.
# (§4) The data shown in table 3 are the means of three individual measurements. ΔE measured under the action of the various test substances has additionally been shown in percent of ΔE of the particular solvent controls. […] At the time of addition of the test substance (day 4), the cells had already reached approx. 50% of the density, and therefore also 50% of the ΔE to be measured.
# HT-29 = assay: MTT assay, HT-29 colon carcinoma cells; type: cell-based, human; conditions: 72 hours
# From the text: as §1, §3, §4
# Caki-1 = assay: MTT assay, Caki-1 kidney carcinoma cells; type: cell-based, human; conditions: 72 hours
# From the text: as §1, §3, §4
# [3] = test system: tumour cell lines investigated; assay: MTT/SRB assays, statements on all tumour cell lines investigated; type: cell-based; conditions: table 3
# From the text: as §1, with “On days 1 and 4, the medium of all the cells was changed, and after the change of medium on day 4, incubation with the active substances (Crataegus formulations, Gentiana, superoxide dismutase, 5-fluorouracil and methotrexate; see below) or the solvents as controls started immediately.” left out
# MTT assay: The MTT assay (T. Mossman, J. Immunoll. Methods 65 (1983) 55-63) is based on measurement of the metabolic activity of living cells. […] The extinction is then determined photometrically at 570 nm. Its linearity in the range used here, and also its correlation to the number of living cells (counted under the microscope) were detected in preliminary experiments. […] For the evaluation, ΔE was determined by subtraction of the extinction in the controls with PBS from the measurement values with MTT. […]
# CMT-93 = assay: SRB assay, CMT-93 rectum carcinoma cells; type: cell-based, mouse; conditions: 72 hours
# From the text: as §1
# as §2, with “After incubation for 30 minutes at room temperature, the dyestuff solution is poured out and the culture is rinsed four times with 1% acetic acid. After removal of the rinsing solution and drying, the dyestuff adhering to the basic proteins is dissolved in 100 μl 10 mM tris-base (tris(hydroxymethyl)aminomethane) in the course of 5 minutes.” left out
# as §4
# U373MG = assay: SRB assay, U373MG glioblastoma cells; type: cell-based, human
# From the text: In the context of the present invention, five human tumour cell lines (four carcinoma cell lines, one sarcoma cell line) and one animal carcinoma cell line (cf. tab. 2) were investigated as examples. All the cell lines were kept in permanent cell culture in cell culture bottles with 75 cm^2 base area. They were subjected to passage once a week, and the medium was changed twice a week. At the start of the experiment (day 0), the cells were sown in cell culture plates with 96 depressions (96 well plates) in 100 μl medium per well (=0.32 cm^2) in each case, with the density shown in table 2. […] [table] SRB assay: The SRB assay (P. Skehan et al., J. Natl. Cancer Inst. 82 (1990) 1107-1112) is based on binding of the dyestuff sulphorhodamine B (SRB) to basic proteins. The principle specifies fixing, with the aid of trichloroacetic acid, the tumour cells adhering to the culture vessel base and thereafter dyeing their protein. This dyeing is then also determined photometrically. Non-living cells are distinguished in that they first detach themselves from the cell culture base and then dissolve in the culture medium. This method therefore also measures only the living cells in a cell culture. The cells growing in 100 μl medium are first fixed with 25 μl 50% cold trichloroacetic acid at 4° C. After incubation for one hour at 4° C., all the non-fixed constituents are removed and those which remain are rinsed five times with water. After drying in air, 200 μl 0.4% sulphorhodamine B solution in 1% acetic acid or, in the photometric controls, only acetic acid,. are added. […] For the evalution, ΔE was determined by subtraction of the extinction in the controls with acetic acid from the measurement values with SRB. The data shown in table 3 are the means of three individual measurements. ΔE measured under the action of the various test substances has additionally been shown in percent of ΔE of the particular solvent controls. […] At the time of addition of the test substance (day 4), the cells had already reached approx. 50% of the density, and therefore also 50% of the ΔE to be measured.
# [4] = solvent H2O 0.10% final conc, 1 μg/ml
# [5] = U373MG, medium, 45 μg/ml, 72 hours
compound,measurement,setting,value
O=c1cc(-c2ccc(O)c(O)c2)oc2cc(O[C@@H]3O[C@H](CO)[C@@H](O)[C@H](O)[C@H]3O)cc(O)c12 [luteolin-7-glucoside],"effect on proliferation of human fibroblasts, keratinocytes and endothelial cells",[1],inhibits the proliferation
same,effect on proliferation of human neuroblastoma and breast carcinoma cells,[2],inhibiting effect
"Superoxide dismutase: Superoxide dismutase from bovine erythrocytes, superoxide scavenger comparison",% control,SKMEL-2; [4],94%
same,dE mean,SKMEL-2; [4],1.340
same,% control,SAOS-2; [4],98%
same,dE mean,SAOS-2; [4],0.564
same,% control,HT-29; [4],90%
same,dE mean,HT-29; [4],1.725
same,% control,Caki-1; [4],97%
same,dE mean,Caki-1; [4],1.442
same,"cytostatic/cytotoxic action on the cell lines investigated, in words",[3],no cytostatic or cytotoxic effects
same,% control,CMT-93; [4],92%
same,dE mean,CMT-93; [4],0.326
O=c1[nH]cc(F)c(=O)[nH]1 [5-Fluorouracil],% control,"HT-29; medium, 25 μg/ml",53%
same,dE mean,"HT-29; medium, 25 μg/ml",0.973
same,% control,"CMT-93; medium, 25 μg/ml",63%
same,dE mean,"CMT-93; medium, 25 μg/ml",0.191
O=c1c(O)c(-c2ccc(O)c(O)c2)oc2cc(O)cc(O)c12 [quercetin],"effect on proliferation of human fibroblasts, keratinocytes and endothelial cells",[1],inhibits the proliferation
same,effect on proliferation of human neuroblastoma and breast carcinoma cells,[2],inhibiting effect
CN(Cc1cnc2nc(N)nc(N)c2n1)c1ccc(C(=O)N[C@@H](CCC(=O)O)C(=O)O)cc1 [Methotrexate],% control,"SKMEL-2; medium, 45 μg/ml",119%
same,dE mean,"SKMEL-2; medium, 45 μg/ml",2.429
same,"cytostatic/cytotoxic action on SKMEL-2 cells, in words",SKMEL-2; table 3,resistance
same,% control,"SAOS-2; medium, 45 μg/ml",41%
same,dE mean,"SAOS-2; medium, 45 μg/ml",0.259
same,% control,U373MG; [5],135%
same,dE mean,U373MG; [5],1.449
same,"cytostatic/cytotoxic action on U373MG cells, in words",U373MG; table 3,resistance
same,% control,"Caki-1; medium, 45 μg/ml",47%
same,dE mean,"Caki-1; medium, 45 μg/ml",0.679
